Measurements: patent publication US4822815A, “Dioxane hexenoic acids” (Imperial Chemical Industries PLC, priority 1985, dated 1989)

How the values were obtained:
TXA2 [1] = assay: TXA2 antagonism in general (statement in words)
Excerpt: (§1) As stated earlier, the acids of formula I are antagonists of one or more of the actions of TXA2, for example certain of its actions on blood platelets, the vasculature and/or the lung.

[2] = tested on: U46619 induced bronchoconstriction; assay: Test (c) bronchoconstriction test, Konzett-Rossler anaesthetised guinea-pig model; assay type: in vivo; settings: 2 hours after oral dosing at 0.05 mg/kg
Excerpt: (c) a bronchoconstriction test involving measuring the inhibition by a test compound of the broncho-constriction induced in the Konzett-Rossler, anaesthetised guinea-pig model (as modified by Collier and James, Brit.J.Pharmacol., 1967, 30, 283-307) by intravenous administration of the TXA2 mimetic agent, U46619 and involving:
(i) obtaining a cumulative dose-response curve to U46619 induced bronchoconstriction by intravenous administration of constant volumes of increasing concentrations of U46619 (0.2-4 μg/kg) in physiological saline solution and expressing bronchoconstriction as the maximum of that theoretically obtainable with no air flow to the test animal;
(ii) generating a cumulative dose-response curve to U46619 induced bronchoconstriction at 30 minute intervals for 3 hours after oral dosing of test compound; and
(iii) calculating a dose-ratio for the test compound (that is the ratio of concentration of U46619 required to cause 50% bronchoconstriction in the presence and absence of test compound) indicating the potency of TXA2 antagonism.

[3] = tested on: hypertensive effect of U46619; assay: Test (d) hypertensive effect of U46619 in anaesthetised rats; assay type: in vivo, rat (Alderley Park strain)
Description: (d) Male rats (Alderley Park strain) are anaesthetised with sodium pentobarbital and blood pressure is monitored at the carotid artery. The TXA2 mimetic agent is administered intravenously via the jugular vein and an ED50 (dose necessary to produce 50% of the maximum hypertensive effect) is established (n=3). [The ED50 for U46619 is approximately 5 μg/kg.] A test compound is then administered either intravenously (via the jugular vein) or orally (via a cannula) directly into the stomach and the animal challenged with an ED50 dose of U46619, five minutes after dosing with test compound and then successively every ten minutes until the hypertensive effect of U46619 is no longer blocked.

TXA2 [4] = assay: Test (a) rabbit aortal strip model, U46619 as agonist; assay type: cell-based; settings: ±0.05
Description: as §1
(a) The rabbit aortal strip model devised by Piper and Vane (Nature, 1969, 223, 29-35) using as agonist a freshly prepared sample of TXA2, generated by addition of arachidonic acid (25 μg) to citrated, platelet rich rabbit plasma (250 μl) and allowing the mixture to aggregate fully over 90 seconds before use; alternatively the TXA2 mimetic agent known as U46619 (described by R L Jones et alia in "Chemistry, Biochemistry and Pharmacological Activity of Prostanoids" edited by S M Roberts and F Scheinmann, at page 211; Pergamon Press, 1979) may be used as the agonist;

[5] = molecular target: T1, U46619 stimulated platelet aggregation (Homo sapiens, UniProt P21731); assay: Test (b) blood platelet aggregation test (human citrated platelet-rich plasma, U46619); assay type: cell-based; settings: U46619 stimulated aggregation of human platelets; averaged over several concentrations
T1 construct: human, citrated, platelet-rich plasma; endogenous in cells; host or cells: human platelets in citrated platelet-rich plasma
T1 sequence (P21731 1-343): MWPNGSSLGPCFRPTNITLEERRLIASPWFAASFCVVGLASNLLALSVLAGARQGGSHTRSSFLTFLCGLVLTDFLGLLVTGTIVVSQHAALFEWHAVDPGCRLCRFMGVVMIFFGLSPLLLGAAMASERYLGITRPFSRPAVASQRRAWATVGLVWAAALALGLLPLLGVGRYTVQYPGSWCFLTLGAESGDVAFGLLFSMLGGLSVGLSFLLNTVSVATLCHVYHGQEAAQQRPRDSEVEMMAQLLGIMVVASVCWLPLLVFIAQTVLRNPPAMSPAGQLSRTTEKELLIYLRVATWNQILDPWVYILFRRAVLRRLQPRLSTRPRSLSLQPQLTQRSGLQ
Excerpt: (b) A blood platelet aggregation test based on that described by Born (Nature, 1962, 194, 927-929) and involving:
(i) aggregating human, citrated, platelet-rich plasma by addition of the TXA2 mimetic agent U46619 so that a dose-response curve is generated,
(ii) generating a dose-response curve for U46619 stimulated platelet aggregation in the presence of decreasing amounts of test compound (generally in the range 10^-5 M to 10^-10 M); and
(iii) calculating a KB value indicating potency of TXA2 antagonism for the test compound, averaged over several concentrations, from the calculated 50% response value for U46619 aggregation in the presence and absence of test compound; and […]

Row | SMILES | antagonism of one or more of the actions of TXA2 (in words) (TXA2 [1]) | dose ratio [2] | duration of inhibition of the hypertensive effect of U46619 ([3]; about 80% inhibition, oral dose of 0.05 mg/kg) | inhibition of the hypertensive effect of U46619 ([3]; oral dose of 0.05 mg/kg, for more than 1 hour) | pA2 (U46619) (TXA2 [4]) | Kb [5] [µM] | ED50 ([3]; Rattus norvegicus, intravenous via the jugular vein, n=3, read-out: ED50 (dose necessary to produce 50% of the maximum hypertensive effect)) [µg/kg]
1 | N#Cc1ccc([C@@H]2OC[C@H](C/C=C\CCC(=O)O)[C@H](c3ccccc3O)O2)s1 (relative stereo) [Example 9, 4(2)-6([2,4,5-cis]-2-[5-cyano-2-thienyl]-4-o-hydroxphenyl-1,2-dioxan-5-yl)hexenoic acid] | especially potent antagonists |  |  |  |  |  | 
2 | O=C(O)CC/C=C\C[C@H]1CO[C@@H](c2ccc([N+](=O)[O-])s2)O[C@H]1c1ccccc1O (relative stereo) [Example 4] | especially potent antagonists | > 100 | more than 1 hour | about 80% | 8.3 | 0.00754 | 
3 | CCCCC[C@H](O)/C=C/[C@@H]1[C@@H](C/C=C\CCCC(=O)O)[C@H]2CO[C@@H]1C2 [Example U46619, reference compound] |  |  |  |  |  |  | ~5
4 | O=C(O)CC/C=C\C[C@H]1CO[C@@H](c2ccsc2)O[C@H]1c1ccccc1O (relative stereo) [Example 8, 4(Z)-6-([2,4,5-cis-]-4-o-hydroxy-phenyl-2-[3-thienyl]-1,3-dioxan-5-yl)hexenoic acid] | especially potent antagonists | 3 |  |  | 7.6 | 0.0138 | 
